Measured values reported in patent US10662156B2, “Guanidine derivative and medical use thereof” (Toray Industries, Inc., priority 2016, dated 2020).

Key:
[1] = tested on: oxazolone-induced atopic dermatitis mouse models; experiment: Suppressive effect on auricular hypertrophy in oxazolone-induced atopic dermatitis mouse model; format: in vivo, BALB/c male mice; conditions: 30 mg/kg orally twice a day
Method: The guanidine derivative (I) or the pharmacologically acceptable salt thereof was evaluated for its exertion of a therapeutic effect on atopic dermatitis, one type of allergic disease, in an in vivo experimental system using oxazolone-induced atopic dermatitis mouse models in accordance with the method described in the literature (Plos One, Vol. 8, No. 7, e6614). Specifically, the evaluation was conducted by verifying the suppressive effect of the compound on auricular hypertrophy by using, as an index, the thickness of the auricle increased with the progression of symptoms in oxazolone-induced atopic dermatitis models.
Seven-week-old BALB/c male mice (Charles River Laboratories Japan, Inc.) were preliminarily bred and then used at the age of 8 weeks. […]
The thickness of the auricle before oxazolone administration (before induction) at the date of induction and the thickness of the auricle at post-induction day 28 were measured using a digital micrometer (Mitsutoyo Corp.), and the change therebetween (the thickness of the auricle at post-induction day 28—the thickness of the auricle before induction) was used as an index for drug efficacy evaluation. […]

[2] = biological target: recombinant GST fusion MALT1 (human MALT1) (Homo sapiens (Human), UniProt Q9UDY8); experiment: Evaluation of inhibition of protease activity of MALT1 (cleavage of fluorescent peptide substrate Ac-LRSR-AMC); format: biochemical; conditions: substrate Ac-LRSR-AMC 20 μmol/L, 30° C. for 80 minutes
recombinant GST fusion MALT1 (human MALT1), sequence (Q9UDY8 whole entry, the tested form may be a part): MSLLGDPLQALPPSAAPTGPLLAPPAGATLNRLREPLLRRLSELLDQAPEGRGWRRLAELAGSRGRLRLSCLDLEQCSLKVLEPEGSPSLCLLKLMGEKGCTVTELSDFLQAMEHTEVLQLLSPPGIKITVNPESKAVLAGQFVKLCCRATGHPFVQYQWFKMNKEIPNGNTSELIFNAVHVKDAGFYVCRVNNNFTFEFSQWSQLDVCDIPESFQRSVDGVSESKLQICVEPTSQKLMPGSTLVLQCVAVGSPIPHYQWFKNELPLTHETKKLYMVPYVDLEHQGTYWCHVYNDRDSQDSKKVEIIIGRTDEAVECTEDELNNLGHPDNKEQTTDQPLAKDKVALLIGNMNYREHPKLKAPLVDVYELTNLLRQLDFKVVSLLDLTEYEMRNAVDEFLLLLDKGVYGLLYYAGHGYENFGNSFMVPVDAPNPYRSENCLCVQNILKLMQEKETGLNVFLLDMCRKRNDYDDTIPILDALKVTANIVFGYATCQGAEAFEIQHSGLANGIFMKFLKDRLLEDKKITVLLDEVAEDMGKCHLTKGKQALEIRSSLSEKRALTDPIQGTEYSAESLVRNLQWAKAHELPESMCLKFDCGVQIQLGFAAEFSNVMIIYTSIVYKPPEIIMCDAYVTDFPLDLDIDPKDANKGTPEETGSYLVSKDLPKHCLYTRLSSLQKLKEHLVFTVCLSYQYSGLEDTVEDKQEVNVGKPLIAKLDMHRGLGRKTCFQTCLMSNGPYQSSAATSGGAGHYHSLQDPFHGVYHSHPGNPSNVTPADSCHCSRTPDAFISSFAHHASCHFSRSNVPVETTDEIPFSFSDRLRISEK
Method in brief: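 GST-tagged full-length human MALT1 from E. coli ([…]) was preincubated with compound 30 min at room temperature. Buffer: MES, 150 mM NaCl, 10% sucrose, 0.1% CHAPS, 10 mM DTT, 1 mol/L ammonium citrate. Ac-LRSR-AMC (20 μM final) was then cleaved 80 min at 30 °C; AMC fluorescence (Ex 380/Em 460) gain gave % inhibition versus no-enzyme and DMSO controls.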

Cl.N/C(=N\S(=O)(=O)c1ccccc1)NCc1cnc(-c2ccc(Cl)cc2)c(-c2ccc(Cl)cc2)c1 [Compound of Example 2, N-(amino(((5,6-bis(4-chlorophenyl)pyridin-3-yl)methyl)amino)methylene)benzenesulfonamide Hydrochloride]
change in the thickness of the auricle (increase) ([1]; post-induction days 21 to 27, post-induction day 28 vs before induction, vehicle group 515 μm): 419 μm
change in the thickness of the auricle compared to the vehicle administration group (in words) ([1]; t test, P<0.05): statistically significantly decreased
IC50 [2]: 270 nM
